According to PubChem BioAssay (NCI):
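1) Cells in 96-well plates. 2) Compound, 48 h, 5 concentrations. 3) Linear interpolation between surrounding doses. 4) Unreached endpoint = highest concentration. TGI is the concentration that stops growth completely.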

Assays:
Test in all cases: DTP human tumour cell line panel, 48 h
NCI-H522 lung = test system: NCI-H522 lung
DU-145 prostate = test system: DU-145 prostate
MDA-MB-435 = test system: MDA-MB-435
MALME-3M melanoma = test system: MALME-3M melanoma
NCI-H226 lung = test system: NCI-H226 lung
SR leukemia = test system: SR leukemia
SK-OV-3 ovarian = test system: SK-OV-3 ovarian
SF-539 CNS = test system: SF-539 CNS
IGROV1 ovarian = test system: IGROV1 ovarian
SNB-19 CNS = test system: SNB-19 CNS
RPMI-8226 leukemia = test system: RPMI-8226 leukemia
HCT-116 colon = test system: HCT-116 colon
SK-MEL-2 melanoma = test system: SK-MEL-2 melanoma
OVCAR-3 ovarian = test system: OVCAR-3 ovarian
LOX IMVI melanoma = test system: LOX IMVI melanoma
BT-549 breast = test system: BT-549 breast
NCI/ADR-RES ovarian = test system: NCI/ADR-RES ovarian
M14 melanoma = test system: M14 melanoma
HOP-92 NSCLC = test system: HOP-92 NSCLC
OVCAR-8 ovarian = test system: OVCAR-8 ovarian
SK-MEL-28 melanoma = test system: SK-MEL-28 melanoma
HT29 colon = test system: HT29 colon
RXF 393 renal = test system: RXF 393 renal
NCI-H23 lung = test system: NCI-H23 lung
SNB-75 CNS = test system: SNB-75 CNS
SK-MEL-5 melanoma = test system: SK-MEL-5 melanoma
KM12 colon = test system: KM12 colon
T-47D breast = test system: T-47D breast
MOLT-4 leukemia = test system: MOLT-4 leukemia
HOP-62 NSCLC = test system: HOP-62 NSCLC
HCT-15 colon = test system: HCT-15 colon
SF-268 CNS = test system: SF-268 CNS
A498 renal = test system: A498 renal
HL-60(TB) leukemia = test system: HL-60(TB) leukemia
MDA-N = test system: MDA-N
SF-295 CNS = test system: SF-295 CNS
HS 578T breast = test system: HS 578T breast
A549 NSCLC = test system: A549 NSCLC
K-562 leukemia = test system: K-562 leukemia
CCRF-CEM leukemia = test system: CCRF-CEM leukemia
UO-31 renal = test system: UO-31 renal
UACC-62 melanoma = test system: UACC-62 melanoma
ACHN renal = test system: ACHN renal
OVCAR-5 ovarian = test system: OVCAR-5 ovarian
EKVX NSCLC = test system: EKVX NSCLC
COLO 205 colon = test system: COLO 205 colon
PC-3 prostate = test system: PC-3 prostate
SN12C renal = test system: SN12C renal
SW-620 colon = test system: SW-620 colon
MCF7 breast = test system: MCF7 breast
CAKI-1 renal = test system: CAKI-1 renal
UACC-257 melanoma = test system: UACC-257 melanoma
HCC-2998 colon = test system: HCC-2998 colon
TK-10 renal = test system: TK-10 renal
U251 CNS = test system: U251 CNS
786-0 renal = test system: 786-0 renal
OVCAR-4 ovarian = test system: OVCAR-4 ovarian
NCI-H460 lung = test system: NCI-H460 lung
MDA-MB-231 breast = test system: MDA-MB-231 breast

`COc1cc(S(=O)(=O)Nc2ccc(-c3csc(N4C(=O)C(C)SC4c4cccc(Oc5ccccc5)c4)n3)cc2)ccc1Cl` (stereo not given) gave a TGI (NCI-H522 lung) greater than 100 µM, a TGI (DU-145 prostate) greater than 100 µM and a TGI (MDA-MB-435) greater than 100 µM. It also gave a TGI (MALME-3M melanoma) greater than 100 µM, a TGI (NCI-H226 lung) greater than 100 µM and a TGI (SR leukemia) greater than 100 µM. It also gave a TGI (SK-OV-3 ovarian) greater than 100 µM, a TGI (SF-539 CNS) greater than 100 µM and a TGI (IGROV1 ovarian) greater than 100 µM. It also gave a TGI (SNB-19 CNS) greater than 100 µM, a TGI (RPMI-8226 leukemia) greater than 100 µM and a TGI (HCT-116 colon) greater than 100 µM. The TGI (SK-MEL-2 melanoma) was greater than 100 µM, the TGI (OVCAR-3 ovarian) was greater than 100 µM and the TGI (LOX IMVI melanoma) was greater than 100 µM. The TGI (BT-549 breast) was greater than 100 µM, the TGI (NCI/ADR-RES ovarian) was greater than 100 µM and the TGI (M14 melanoma) was greater than 100 µM. It also gave a TGI (HOP-92 NSCLC) greater than 100 µM, a TGI (OVCAR-8 ovarian) greater than 100 µM and a TGI (SK-MEL-28 melanoma) greater than 100 µM. The TGI (HT29 colon) was greater than 100 µM, the TGI (RXF 393 renal) was 88.2 µM and the TGI (NCI-H23 lung) was greater than 100 µM. For the same molecule, the TGI (SNB-75 CNS) was greater than 100 µM, the TGI (SK-MEL-5 melanoma) was greater than 100 µM and the TGI (KM12 colon) was greater than 100 µM. The TGI (T-47D breast) was greater than 100 µM, the TGI (MOLT-4 leukemia) was greater than 100 µM and the TGI (HOP-62 NSCLC) was greater than 100 µM. For the same molecule, the TGI (HCT-15 colon) was greater than 100 µM, the TGI (SF-268 CNS) was greater than 100 µM and the TGI (A498 renal) was 79.3 µM. For the same molecule, the TGI (HL-60(TB) leukemia) was 67.2 µM, the TGI (MDA-N) was greater than 100 µM and the TGI (SF-295 CNS) was greater than 100 µM. The TGI (HS 578T breast) was greater than 100 µM, the TGI (A549 NSCLC) was greater than 100 µM and the TGI (K-562 leukemia) was greater than 100 µM. For the same molecule, the TGI (CCRF-CEM leukemia) was greater than 100 µM, the TGI (UO-31 renal) was greater than 100 µM and the TGI (UACC-62 melanoma) was greater than 100 µM. The TGI (ACHN renal) was greater than 100 µM, the TGI (OVCAR-5 ovarian) was greater than 100 µM and the TGI (EKVX NSCLC) was greater than 100 µM. The TGI (COLO 205 colon) was greater than 100 µM, the TGI (PC-3 prostate) was greater than 100 µM and the TGI (SN12C renal) was greater than 100 µM. It also gave a TGI (SW-620 colon) greater than 100 µM, a TGI (MCF7 breast) of 72.2 µM and a TGI (CAKI-1 renal) greater than 100 µM.

Work on `O=C1CC(Cl)c2c1csc2Br` (stereo not given) yielded a TGI (NCI-H522 lung) of 11.3 µM, a TGI (DU-145 prostate) greater than 100 µM and a TGI (MDA-MB-435) of 29.1 µM. The TGI (MALME-3M melanoma) was 30.1 µM, the TGI (NCI-H226 lung) was 76.9 µM and the TGI (UACC-257 melanoma) was 32.1 µM. It also gave a TGI (SR leukemia) of 22.3 µM, a TGI (SK-OV-3 ovarian) of 32.6 µM and a TGI (SF-539 CNS) of 6.46 µM. For the same molecule, the TGI (IGROV1 ovarian) was 30.8 µM, the TGI (SNB-19 CNS) was 32.9 µM and the TGI (RPMI-8226 leukemia) was 3.25 µM. It also gave a TGI (HCT-116 colon) of 33.1 µM, a TGI (SK-MEL-2 melanoma) of 29.8 µM and a TGI (OVCAR-3 ovarian) of 39.5 µM. It also gave a TGI (LOX IMVI melanoma) of 30.5 µM, a TGI (BT-549 breast) of 34 µM and a TGI (HCC-2998 colon) of 31.2 µM. The TGI (NCI/ADR-RES ovarian) was 47 µM, the TGI (M14 melanoma) was 27.3 µM and the TGI (HOP-92 NSCLC) was 41.8 µM. The TGI (OVCAR-8 ovarian) was 29.8 µM, the TGI (SK-MEL-28 melanoma) was 32.1 µM and the TGI (TK-10 renal) was 29.5 µM. It also gave a TGI (HT29 colon) of 43.9 µM, a TGI (RXF 393 renal) of 34.7 µM and a TGI (NCI-H23 lung) of 28.9 µM. For the same molecule, the TGI (SNB-75 CNS) was 35.4 µM, the TGI (SK-MEL-5 melanoma) was 30.6 µM and the TGI (KM12 colon) was 28.5 µM. The TGI (U251 CNS) was 30.4 µM, the TGI (T-47D breast) was 70.1 µM and the TGI (MOLT-4 leukemia) was 22.2 µM. For the same molecule, the TGI (HOP-62 NSCLC) was 28.7 µM, the TGI (HCT-15 colon) was 25.8 µM and the TGI (SF-268 CNS) was 31.4 µM. It also gave a TGI (A498 renal) of 53.8 µM, a TGI (HL-60(TB) leukemia) of 52.4 µM and a TGI (786-0 renal) of 25.9 µM. It also gave a TGI (OVCAR-4 ovarian) of 63.6 µM, a TGI (MDA-N) of 42.2 µM and a TGI (SF-295 CNS) of 50.2 µM. The TGI (HS 578T breast) was 47.5 µM, the TGI (A549 NSCLC) was 41.4 µM and the TGI (K-562 leukemia) was 47 µM. It also gave a TGI (CCRF-CEM leukemia) of 7.78 µM, a TGI (NCI-H460 lung) of 42.5 µM and a TGI (UO-31 renal) of 23.8 µM. The TGI (UACC-62 melanoma) was 29.5 µM, the TGI (ACHN renal) was 29 µM and the TGI (OVCAR-5 ovarian) was 33.5 µM. It also gave a TGI (EKVX NSCLC) of 43.2 µM, a TGI (COLO 205 colon) of 28.5 µM and a TGI (PC-3 prostate) of 25.4 µM. The TGI (SN12C renal) was 35.7 µM, the TGI (SW-620 colon) was 12.6 µM and the TGI (MCF7 breast) was 19.6 µM. It also gave a TGI (CAKI-1 renal) of 17.7 µM.

`CC(CCc1ccccc1)NCC(O)n1c(/N=N/N(C)C)nc2c1c(=O)n(C)c(=O)n2C` (stereo not given) gave a TGI (NCI-H522 lung) greater than 100 µM, a TGI (MDA-MB-435) greater than 100 µM and a TGI (MALME-3M melanoma) greater than 100 µM. For the same molecule, the TGI (NCI-H226 lung) was greater than 100 µM, the TGI (UACC-257 melanoma) was greater than 100 µM and the TGI (SR leukemia) was greater than 100 µM. It also gave a TGI (SK-OV-3 ovarian) greater than 100 µM, a TGI (SF-539 CNS) greater than 100 µM and a TGI (IGROV1 ovarian) greater than 100 µM. The TGI (SNB-19 CNS) was greater than 100 µM, the TGI (RPMI-8226 leukemia) was greater than 100 µM and the TGI (HCT-116 colon) was greater than 100 µM. For the same molecule, the TGI (SK-MEL-2 melanoma) was greater than 100 µM, the TGI (OVCAR-3 ovarian) was greater than 100 µM and the TGI (LOX IMVI melanoma) was greater than 100 µM. For the same molecule, the TGI (BT-549 breast) was greater than 100 µM, the TGI (NCI/ADR-RES ovarian) was greater than 100 µM and the TGI (M14 melanoma) was greater than 100 µM. For the same molecule, the TGI (HOP-92 NSCLC) was greater than 100 µM, the TGI (OVCAR-8 ovarian) was greater than 100 µM and the TGI (SK-MEL-28 melanoma) was greater than 100 µM. The TGI (TK-10 renal) was greater than 100 µM, the TGI (HT29 colon) was greater than 100 µM and the TGI (RXF 393 renal) was greater than 100 µM. It also gave a TGI (NCI-H23 lung) greater than 100 µM, a TGI (SNB-75 CNS) greater than 100 µM and a TGI (SK-MEL-5 melanoma) greater than 100 µM. The TGI (KM12 colon) was greater than 100 µM, the TGI (U251 CNS) was greater than 100 µM and the TGI (T-47D breast) was greater than 100 µM. For the same molecule, the TGI (MOLT-4 leukemia) was greater than 100 µM, the TGI (HOP-62 NSCLC) was greater than 100 µM and the TGI (HCT-15 colon) was greater than 100 µM. It also gave a TGI (SF-268 CNS) greater than 100 µM, a TGI (A498 renal) greater than 100 µM and a TGI (HL-60(TB) leukemia) greater than 100 µM. The TGI (786-0 renal) was greater than 100 µM, the TGI (OVCAR-4 ovarian) was greater than 100 µM and the TGI (MDA-N) was greater than 100 µM. For the same molecule, the TGI (SF-295 CNS) was greater than 100 µM, the TGI (HS 578T breast) was greater than 100 µM and the TGI (A549 NSCLC) was greater than 100 µM. For the same molecule, the TGI (K-562 leukemia) was greater than 100 µM, the TGI (MDA-MB-231 breast) was greater than 100 µM and the TGI (CCRF-CEM leukemia) was greater than 100 µM. The TGI (NCI-H460 lung) was greater than 100 µM, the TGI (UO-31 renal) was greater than 100 µM and the TGI (UACC-62 melanoma) was greater than 100 µM. It also gave a TGI (ACHN renal) greater than 100 µM, a TGI (OVCAR-5 ovarian) greater than 100 µM and a TGI (EKVX NSCLC) greater than 100 µM. It also gave a TGI (COLO 205 colon) greater than 100 µM, a TGI (PC-3 prostate) greater than 100 µM and a TGI (SW-620 colon) greater than 100 µM. For the same molecule, the TGI (MCF7 breast) was greater than 100 µM and the TGI (CAKI-1 renal) was greater than 100 µM.
